Experiment [1] relates to APPswe/PS-1 double transgenic mice. In words: Tau phosphorylation (PHF-1, AT8) by immunoblot and immunohistochemistry in treated mice. It counts as in vivo.
Experiment [2] relates to Wnt/β-catenin pathway in hippocampal slices. Briefly: Wnt pathway mechanism in hippocampal slices (sFRP, Dkk-1, Dvl-3 mobility shift, time course). It counts as cell-based, mice. The protocol:
Slice preparation. […] Transverse slices (250-300 μm) from the dorsal hippocampus were cut under oxygen-saturated cold artificial cerebrospinal fluid using a Vibroslice microtome (VSL, World Precision Instruments, Inc WPI, Sarasota, Fla.). After obtained, slices were incubated in ACSF for at least than one hour at room temperature, in order to stabilize activity. In every moment during dissection, slicing and experimentation slices were oxygenated with 95% oxygen-5% carbon dioxide.
Briefly, tissues were homogenized in RIPA buffer (10 mM Tris-Cl, pH 7.4, EDTA 5 mM, 1% NP-40, 1% sodium deoxycholate, and 1% SDS) supplemented with a protease inhibitor mixture (1 mM PMSF, 2 μg/mL aprotinin, 1 μg/mL pepstatin and 10 μg/mL benzamidine) and phosphatase inhibitors (25 mMNaF, 100 mM Na3VO4, 1 mM EDTA and 30 μM Na4P207) using a Potter homogenizator and then passed sequentially through different caliber syringes. […] Protein concentration was determined using the BCA Protein Assay Kit (Pierce). Samples were resolved by […] 10% SDS-PAGE and transferred to a PVDF membrane. The reactions were followed by incubation with anti-mouse, anti-goat or anti-rabbit IgG peroxidase conjugated (Pierce, Rockford, Ill.) and developed using an ECL kit (Western Lightning Plus ECL, PerkinElmer).

Experiment [3] concerns APPswe/PS-1 double transgenic mice. In words: Immunoblot of synaptic proteins in hippocampus and cortex of treated mice. It counts as in vivo.

Data on 1 compound can be found in patent US20150352075A1, “Treatment of Alzheimer's and Cognitive Impairment With Andrographolides” (INNOBIOSCIENCE, LLC, priority 2013, published 2015).

As for `C=C1CC[C@@H]2C(C)(CO)C(O)CC[C@@]2(C)C1C/C=C1/C(=O)OCC1O` (stereo in doubt) [ANDRO, 3-(2-(Decahydro-6-hydroxy-5-(hydroxymethyl)-5,8a-dimethyl-2-methylenenaphthyl)ethylidene)dihydro-4-hydroxyfuran-2(3H)-one], the “number of AT8-positive neurons next to amyloid deposits” value in experiment [1] (6 month-old APPswe/PS-1, circular area surrounding plaques) is recorded as “clear decrease in the number of AT8-positive neurons next to amyloid deposits”. For the same compound, the “total AT8-positive cells outside the circular area around the plaques” value in experiment [1] (hippocampus) was “decrease in the number of these cells”. Besides, in experiment [1] (hippocampus of 6 month-old APPswe/PS-1 mice, vs untreated), the “PHF-1- and AT8-positive tau levels (immunoblot)” value was “reduction in PHF-1- and AT8-positive tau levels”. Besides, in experiment [2] (compared to Wnt-3a treatment), the “speed of increase in GSK3β pSer-9 and decrease in pTyr-216” value is “faster”. Moreover, the “mobility shift (phosphorylation) of Dvl-3” value in experiment [2] (hippocampal slices, 1 h, western blot) was “does not induce a mobility shift of Dvl-3”. The “time at which total levels of β-catenin increased” value in experiment [2] (slices from 2 month-old wild-type mice, 5 μM ANDRO, Wnt3a conditioned medium or 10 μM 6-B10) is given as 15 min. In experiment [3] (mature Tg mice), the “PSD-95 and GluA2 levels” value is “increase of PSD-95 and GluA2 levels”. Further, the “total levels of pre-synaptic proteins SYP and VAMP” value in experiment [3] (young APPswe/PS-1 mice) is “unaltered”. Besides, the “levels of post-synaptic proteins (Shank, GluN2B, GluA2, PSD-95)” value in experiment [3] (young APPswe/PS-1 mice, hippocampus and cortex) is given as “significantly recovers the post-synaptic proteins”.
